The test system of assay [1] is human pancreatic lipase. The assay can be described thus: pH dependence of human pancreatic lipase activity in the presence of bile acids (diglyceride substrate, UV method). Conditions: for degree of the activation of human pancreatic lipase: conjugated bile acid singly, 40 mmol/L in R-1. The class given is biochemical. How it is done:
After weighing 1,2-dioleoyl glycerol (DODG) (manufactured by Nippon Fine Chemical Co., Ltd.) to attain a concentration of 9.32 mmol/L when dissolved, 1% polyoxyethylene (10) nonyl phenyl ether (NPE) (manufactured by Wako Pure Chemical Industries Ltd.) containing 1.66 mmol/L of MES (manufactured by Dojindo Laboratories) was added thereto to be dissolved therein by stirring at 37° C. for 2 hours, and the resultant was allowed to stand still in ice for 2 hours or more. The thus obtained solution was used as a substrate original liquid.
The above-described diglyceride original liquid was used for preparing a “substrate stock solution” having the following composition:
A “first reaction solution (R-1)” having the following composition was prepared:
A “second reaction solution (R-2)” having the following composition was prepared:
A “second reaction solution (R-2) for sample blank” having the following composition was prepared:
(§1) A mixture of the substrate stock solution and the R-1 in a proportion of 1:2 was used as a first reagent. The R-2 was directly used as a second reagent. As a sample, pooled serum or a control sample (a control containing a pancreatic lipase) was used. A proportion in amount among the sample, the first reagent and the second reagent was set as sample:first reagent:second reagent of 0.01 ml:0.18 ml:0.06 ml. The sample was added to the first reagent, the resultant mixture was heated at 37° C. for 5 minutes, the second reagent was added thereto, and a change rate of an absorbance at 340 nm based on reduced NADP was obtained at 37° C. from 3 minutes after the addition of the second reagent to 4 minutes after the addition, and then, the lipase activity was calculated by using a molecular extinction coefficient of 6300 L/mol·cm of the reduced NADP. Besides, as a sample blank, saline was used instead of a sample, an absorbance was measured by using the reagent for sample blank obtained by removing MGLPII from the second reagent, and a difference between the thus measured two values was defined as an enzyme activity value. For the measurement, Hitachi automatic analyzer Model H7170 or H7080 was used.
As a conjugated bile acid to be added to the R-1, sodium taurodeoxycholate (NaTDCA), sodium glycodeoxycholate (NaGDCA), sodium glycochenodeoxycholate (NaGCDCA), sodium taurochenodeoxycholate (NaTCDCA), sodium glycocholate (NaGCA), sodium taurocholate (NaTCA) and sodium tauroursodeoxycholate (NaTUDCA) all in a concentration of 40 mmol/L were selected, the R-1 was adjusted, by using BES (manufactured by Dojindo Laboratories) respectively to pH 6.8, 7.0, 7.2, 7.4, 7.8, and 8.0, and the human pancreatic lipase activity was measured by using these. The pH of the R-2 was adjusted to be equal to that of the R-1.
It is noted that the concentration of each non-conjugated bile acid was set to be 24 mmol/L in the R-1. Besides, BES was used for adjusting pH to 7.2, 7.6, 7.8 and 8.0, and Bicine was used for adjusting pH to 8.2 and 8.5.
(§2) Similarly to Example 1, a mixture of the substrate stock solution and the R-1 in a proportion of 1:2 was used as a first reagent. Except for this, the measurement was performed in the same manner as in Example 1.
Besides, NaTCA was also combined with a conjugated bile acid, NaTDCA, to examine the pH for giving a maximum value of the human pancreatic lipase activity (the apparent optimum pH). It is noted that a BES buffer was used for adjusting pH to 6.9, 7.2 and 7.7, and a Bicine buffer was used for adjusting pH to 7.95 and 8.2. In each of the combinations of NaGCA/NaDCA, NaTCA/NaDCA, NaTUDCA/NaDCA and NaTCA/NaTDCA, the concentration of each bile acid was set to 20 mmol/L in the R-1. With respect to the combination of NaTCA and NaTDCA, a concentration of 40 mmol/L of NaTDCA was used as a control.
The compositions of the reagents and the measurement operation were the same as those of Example 2.

In assay [2] the test system is human pancreatic lipase. The experiment in a line: lipase activity measured in control, normal and heparin-administered samples with each reagent (1,2-dioleoyl glycerol, UV method; Liquitech Lipase Color II for verification). The class given is biochemical. Conditions: for lipase activity (Table 1): NaDCA pH 8.15, other bile salts pH 7.0; for lipase activity relative to (1) comparative example NaDCA (Table 1): pH 7.0; for lipase activity (Table 2): comparative example pH 8.15, present example pH 7.1, bile acid 40 mmol/L in R-1. On the set-up: lipase activity relative to (1) comparative example NaDCA (Table 1): concentration or dose not given beside the values. The procedure:
as §1, §2
A commercially available reagent for a resorufin colorimetric method, “Liquitech Lipase Color II” manufactured by Roche Diagnostics using 1,2-O-dilauryl-rac-glycerol-3-glutaric acid-(6-methylresorufin)ester (DGGR), which is regarded not to be influenced by a non-pancreatic lipase, such as a lipoprotein lipase or a hepatic lipase, appearing in blood due to administration of heparin, was used for verifying the effect of the present example. “Liquitech Lipase Color II” was used in accordance with the package insert, and a special calibrator was used for calculating the enzyme activity. […] The concentration of each bile acid used in the present example was set to be the same as that in the comparative example.
As samples, a control, non-heparin-administered samples (normal samples), and heparin-administered samples were used.
The compositions of the reagents were the same as those of Example 2. As a comparative example, NaDCA (in a concentration of 40 mmol/L in the R-1) was used as the bile acid, and the reaction solution was adjusted to pH 8.15 (by the Bicine buffer) for measuring a heparin-administered sample.
It is noted that CRM-001b containing a human pancreatic recombinant lipase dissolved not in distilled water but in a pooled serum was used as the calibrator to calculate the lipase activity.
As a bile acid of the present example and a reference example, NaTDCA was selected, and the pH dependence with the pH of a reaction solution changed in a range of 6.2 to 7.6 was examined. It is noted that a case of pH 7.6 was used as the reference example. An MES buffer was used for adjusting pH to 6.2 and 6.4, and the BES buffer was used for adjusting the other pHs. As samples, (six) control samples (controls each containing a pancreatic lipase) and (nine) heparin-administered samples were used. As a comparative example, NaDCA (in a concentration of 40 mmol/L in the R-1) was used as the bile acid, and a reaction solution having pH 8.15 (the Bicine buffer) was used. Besides, “Liquitech Lipase Color II” manufactured by Roche Diagnostics was used for verifying the effect of the present example.

This is an account of results in patent US10000791B2, “Measurement method for human pancreatic lipase activity” (ASAHI KASEI PHARMA CORPORATION, priority 2013, dated 2018).

Each structure is given as a SMILES string.

As to `C[C@H](CCC(=O)[O-])[C@H]1CC[C@H]2[C@@H]3[C@H](O)C[C@@H]4C[C@H](O)CC[C@]4(C)[C@H]3C[C@H](O)[C@]12C.[Na+]` [NaCA, sodium cholate], the “signal of human pancreatic lipase activity” value with human pancreatic lipase [1] (24 mmol/L in R-1, compared with NaDCA) is listed as “merely a slight signal”.
As for `C[C@H](CCC(=O)[O-])[C@H]1CC[C@H]2[C@@H]3[C@H](O)C[C@@H]4C[C@H](O)CC[C@]4(C)[C@H]3CC[C@]12C.[Na+]` [NaCDCA, sodium chenodeoxycholate], the “pH for giving a maximum value of the activity (apparent optimum pH)” value with human pancreatic lipase [1] (pooled serum, non-conjugated bile acid singly, 24 mmol/L in R-1, pH 7.2-8.5) was “about 7.7”.
For `C[C@H](CCC(=O)NCC(=O)[O-])[C@H]1CC[C@H]2[C@@H]3[C@H](O)C[C@@H]4C[C@H](O)CC[C@]4(C)[C@H]3C[C@H](O)[C@]12C.[Na+]` [NaGCA, sodium glycocholate], in the assay with human pancreatic lipase [1] (pooled serum), the “degree of the activation of human pancreatic lipase” value (“degree” below) is “below detection limit”.
Take `C[C@H](CCC(=O)NCC(=O)[O-])[C@H]1CC[C@H]2[C@@H]3CC[C@@H]4C[C@H](O)CC[C@]4(C)[C@H]3C[C@H](O)[C@]12C.[Na+]` [NaGDCA, sodium glycodeoxycholate]: the “lipase activity (Table 1)” value is on record as 47.1 U/L with human pancreatic lipase [2] (Normal sample 1); 91.5 U/L in the assay on human pancreatic lipase [2] (Normal sample 2); 49.7 U/L in the assay on human pancreatic lipase [2] (Normal sample 3); 32.9 U/L in the assay with human pancreatic lipase [2] (Normal sample 4); 36.2 U/L with human pancreatic lipase [2] (Normal sample 5); 39.1 U/L with human pancreatic lipase [2] (sample Heparin 1). Also, the “lipase activity (Table 1)” value came out at 47.5 U/L with human pancreatic lipase [2] (sample Heparin 2); 36.9 U/L in the assay on human pancreatic lipase [2] (sample Heparin 3); 28.2 U/L in the assay on human pancreatic lipase [2] (sample Heparin 4); 23.8 U/L in the assay on human pancreatic lipase [2] (sample Heparin 5); 28.9 U/L in the assay with human pancreatic lipase [2] (sample Heparin 6); 58.0 U/L in the assay with human pancreatic lipase [2] (sample Heparin 7). In addition, the “lipase activity (Table 1)” value is on record as 43.9 U/L in the assay with human pancreatic lipase [2] (sample Heparin 8), 81.0 U/L in the assay with human pancreatic lipase [2] (sample Heparin 9), 52.2 U/L with human pancreatic lipase [2] (sample PRECINORM) and 124.6 U/L with human pancreatic lipase [2] (sample PRECIPATH). Further, the “lipase activity relative to (1) comparative example NaDCA (Table 1)” value is given as 120.6% in the assay on human pancreatic lipase [2] (Normal sample 1); 96.3% in the assay with human pancreatic lipase [2] (Normal sample 2); 106.5% in the assay on human pancreatic lipase [2] (Normal sample 3); 75.8% in the assay with human pancreatic lipase [2] (Normal sample 4); 89.0% with human pancreatic lipase [2] (Normal sample 5); 50.9% with human pancreatic lipase [2] (sample Heparin 1). The “lipase activity relative to (1) comparative example NaDCA (Table 1)” value with human pancreatic lipase [2] (sample Heparin 2) was determined as 54.8%; in the assay on human pancreatic lipase [2] (sample Heparin 3), 32.7%; with human pancreatic lipase [2] (sample Heparin 4), 27.8%; in the assay with human pancreatic lipase [2] (sample Heparin 5) it was 34.8%; in the assay on human pancreatic lipase [2] (sample Heparin 6), 41.8%; in the assay on human pancreatic lipase [2] (sample Heparin 7), 42.0%. The “lipase activity relative to (1) comparative example NaDCA (Table 1)” value in the assay with human pancreatic lipase [2] (sample Heparin 8) is on record as 34.8%; in the assay on human pancreatic lipase [2] (sample Heparin 9) it was 48.0%; in the assay on human pancreatic lipase [2] (sample PRECINORM), 102.4%; in the assay on human pancreatic lipase [2] (sample PRECIPATH), 97.4%.
`C[C@H](CCC(=O)NCCS(=O)(=O)O)[C@H]1CC[C@H]2[C@@H]3[C@H](O)C[C@@H]4C[C@H](O)CC[C@]4(C)[C@H]3C[C@H](O)[C@]12C` [NaTCA, sodium taurocholate]: the “degree” value in the assay with human pancreatic lipase [1] (pooled serum) is “below detection limit”.
`C[C@H](CCC(=O)NCCS(=O)(=O)[O-])[C@H]1CC[C@H]2[C@@H]3[C@@H](O)C[C@@H]4C[C@H](O)CC[C@]4(C)[C@H]3CC[C@]12C.[Na+]` [NaTCDCA, sodium taurochenodeoxycholate]: the “lipase activity (Table 2)” value in the assay with human pancreatic lipase [2] (sample Heparin 1) is 54.5 U/L; in the assay with human pancreatic lipase [2] (sample Heparin 2) it was 31.7 U/L; in the assay on human pancreatic lipase [2] (sample Heparin 3), 48.1 U/L.
With `C[C@H](CCC(=O)NCCS(=O)(=O)[O-])[C@H]1CC[C@H]2[C@@H]3[C@@H](O)C[C@@H]4C[C@H](O)CC[C@]4(C)[C@H]3CC[C@]12C.[Na+]` [NaTUDCA, sodium tauroursodeoxycholate], the “degree” value in the assay with human pancreatic lipase [1] (pooled serum) was “below detection limit”.
